Measured values: US20120142770A1, “PHARMACEUTICAL COMPOSITIONS OF HDAC INHIBITORS AND CHELATABLE METAL COMPOUNDS, AND METAL-HDAC INHIBITOR CHELATE COMPLEXES” (Merck Sharp & Dohme Corp, priority 2006, published 2012)
Values after ≈ are worked out from the molar mass of the structure shown. Where two headings read alike, the source gives them in different places.

Columns and labels:
[1] = in vivo; cited from earlier work
[2] = Solubility of raw material (Table 1); assay type: physicochemical
Source text: Table 1 summarizes the physical properties of the raw materials in the capsule.

patients with cancer = conditions: cited from earlier work
all animal species = conditions: cited from earlier work
in vivo = conditions: female, CD1 nu/nu, mouse, ip
Method: To test whether the maximum tolerated dose (MTD) of vorinostat in mice can be increased with zinc supplementation, Mice (CD1 nu/nu female, 6-8 weeks old, Charles River Laboratories) are administered vehicle, 150 mg/kg (MTD) or 300 mg/kg vorinostat in vehicle (Table 11). Mice are given 0.5, 1, or 5 molar equivalents (relative to vorinostat) of zinc chloride. This corresponds to ZnCl2 doses of 38.5, 77, and 385 mg/kg for the 150 mg/kg vorinostat group.
Body weight and survival are monitored as indications of toxicity. Doses resulting in a group average body weight loss of more than 20% average will be considered non-tolerated. Likewise, doses resulting in the treatment-related death of more than 2 mice per group will be considered non-tolerated.

rats = conditions: rat, in vivo; cited from earlier work
dogs = conditions: dog, in vivo; cited from earlier work

SMILES | side effects [1] | solubility ([2]; 2% CIP100 aqueous solution, aqueous with cosolvent or surfactant or cyclodextrin, 2% CIP100 aqueous soln., read-out: Solubility in 2% CIP100 aqueous soln.) | solubility ([2]; 2% SD-20 aqueous solution, aqueous with cosolvent or surfactant or cyclodextrin, 2% SD-20 aqueous soln., read-out: Solubility in 2% SD-20 aqueous soln.) | solubility ([2]; in water, read-out: Solubility in Water) | solubility ([2]; organic solvent or mixture, in methanol, read-out: Solubility in Methanol) | Clinical adverse experiences or side effects (patients with cancer) | Preclinical toxicity (all animal species) | MTD (in vivo) | Preclinical toxicity (rats) | Preclinical toxicity (dogs)
CC(=O)N(O)CCCCCNC(=O)CCC(=O)N(O)CCCCCNC(=O)CCC(=O)N(O)CCCCCN [Desferrioxamine] | fatigue, bone marrow atrophy, thymic atrophy and neutropenia | – | – | – | – | – | – | – | – | –
CC(=O)NO [Lithostat, acetohydroxamic acid] | nausea, vomiting, anorexia, fatigue, malaise, reticulocytosis, anemia, thrombocytopenia, leukopenia and headache | – | – | – | – | – | – | – | – | –
O=C(CCCCCCC(=O)Nc1ccccc1)NO [Suberoylanilide hydroxamic acid (SAHA), N-hydroxy-N′-phenyloctanediamide] | – | 11.3 mg/mL (≈ 42.8 mM) | 0.085 mg/mL (≈ 0.322 mM) | < 0.1 mg/mL | 42 mg/mL (≈ 159 mM) | diarrhea, fatigue, nausea, thrombocytopenia, anorexia, dysgeusia, weight decrease, muscle spasms, alopecia, anemia, blood creatinine increase, vomiting, chills | weight loss or inappetence, immune suppression (leucopenia, lymphopenia, thymic atrophy) | 150 mg/kg | thrombocytopenia | gastrointestinal toxicity (mucosal atrophy, acute inflammation, necrosis, multiple lesions), dehydration, electrolyte loss, testicular atrophy
